Data as given in patent US20240300913A1, “FLAVONE DERIVATIVE AND USE THEREOF FOR IMPROVING PULMONARY FIBROSIS” (A-CHEMBIO CO., LTD, priority 2023, published 2024).

Tests used:
HLF cells [1] = test: Effect upon TGF-β1 treatment in HLF cells (western blot of protein levels); format: cell-based, human; settings: 5 ng/mL TGF-β1 and compound, 24 hours, FIG. 32
Description: After suspending 5×10^6 human lung fibroblast (HLF) cells in a medium, […] dispensed into a 100-mm plate, and incubated for 24 hours. […] After 24 and 48 hours of incubation, the cells were lysed with RIPA lysis buffer ([50 mM Tris]-Cl (pH, 7.4), 1% NP-40, 150 mM NaCl, 1 mM EDTA, and 1 mM phenylmethylsulfonyl fluoride (PMSF)) containing MG-132 (10 μM, proteasome inhibitor, protect the HIF-1α subunit from proteasome degradation). Next, only the supernatant was collected by centrifugation (at 13,000 rpm for 7 minutes) at 4° C., and the proteins were separated by SDS-polyacrylamide gel electrophoresis (SDS-PAGE). The separated proteins were transferred to a polyvinylidene difluoride membrane (PVDF membrane), reacted in 5% nonfat dry milk for 2 hours, and then reacted with primary antibodies at 4° C. overnight. After overnight, the proteins further reacted with secondary antibodies corresponding to the respective primary antibodies. Then, the protein band was examined, according to the manufacturer's protocol, using an ECL kit.
The effect of novel flavone derivative II upon TGF-β1 treatment in HLF cells was evaluated in the same manner as in Example 1 above.
The effect of novel flavone derivative III upon TGF-β1 treatment in HLF cells was evaluated in the same manner as in Example 1 above.

A549 cells [2] = test: MTT cytotoxicity evaluation in A549 cells; format: cell-based; settings: all treatment concentrations up to 20 μM, incubated for 24, 48, and 72 hours, compared to untreated control
Description: To confirm the effect of novel flavone derivative I on cell viability, A549 cells, derived from lung cancer, were used to examine cell viability with MTT [3-(4,5-dimethylthiazol-2-yl)-2,5-diphenyltetrazolium bromide]. After being suspended in a medium, A549 cells were dispensed into a 96-well plate and incubated for 24 hours. After 24 hours, 200 μL of a medium containing 0 to 20 μM BGC was added to each well of the plate and incubated for 24 or 48 hours. After incubation, MTT was diluted (0.5 mg/ml) in phosphate-buffered saline (PBS). Then, 20 μL of the diluted MTT was dispensed into each well, and incubation was performed in a CO2 incubator for 4 hours. After 4 hours, the MTT solution was removed, and 200 μL of dimethyl sulfoxide (DMSO) was dispensed into each well to dissolve the formazan precipitate for 5 minutes. Next, the absorbance was measured at 595 nm.
(§1) Cytotoxicity tests of novel flavone derivative II (Achem II) on A549 cells, HULEC-5a cells, and HLF cells were performed in the same manner as in Example 1 above, using the MTT assay. The results thereof are shown in FIGS. 17 to 19 as cell viability (%) after 24, 48, and 72 hours compared to that of the control group, the untreated sample group.
as §1, with “III” for “II”, “III)” for “II)”, “27” for “17”, “29” for “19”

HULEC-5a cells [3] = test: MTT cytotoxicity evaluation in HULEC-5a cells; format: cell-based, human; settings: compared to untreated control
Description: (§2) To confirm the effect of novel flavone derivative I on cell viability, HULEC-5a, human lung microvascular endothelial cells, were used to examine cell viability with MTT [3-(4,5-dimethylthiazol-2-yl)-2,5-diphenyltetrazolium bromide]. After being suspended in a medium, HULEC-5a cells were dispensed into a 96-well plate and incubated for 24 hours. […] After incubation, all media was removed, and MTT was diluted (0.5 mg/mL) in phosphate-buffered saline (PBS). Then, 200 μL of the diluted MTT was dispensed into each well, and incubation was performed in a CO2 incubator for 4 hours. After 4 hours, the MTT solution was removed, and 160 μL of dimethyl sulfoxide (DMSO) was dispensed into each well to dissolve the formazan precipitate for 30 minutes. Next, the absorbance was measured at 570 nm.
as §1
as §1, with “III” for “II”, “III)” for “II)”, “27” for “17”, “29” for “19”

A549 cells [4] = test: Effect upon TGF-β1 treatment in A549 cells (western blot of protein levels); format: cell-based; settings: 5 ng/mL TGF-β1 and compound, 24 hours, FIG. 30
Description: 3.5*10^5 A549 cells, derived from lung cancer, were suspended in a medium, dispensed into a 60-mm plate, and incubated for 48 hours. After 48 hours of incubation, each plate was treated with TGF-β1 (10 ng/ml) alone or in combination with novel flavone derivative I at varying concentrations or a predetermined concentration and/or nintedanib (NIDB), a therapeutic drug for idiopathic pulmonary fibrosis and interstitial lung disease as a positive control. […] Next, only the supernatant was collected by centrifugation (at 14,000 rpm for 10 minutes) at 4° C., and the proteins were separated by SDS-polyacrylamide gel electrophoresis (SDS-PAGE). The separated proteins were transferred to a polyvinylidene difluoride membrane (PVDF membrane), reacted in 5% nonfat dry milk for 3 hours, and then reacted with primary antibodies at 4° C. for 12 hours. After 12 hours, the proteins further reacted with secondary antibodies corresponding to the respective primary antibodies. Then, the protein band was examined, according to the manufacturer's protocol, using an ECL kit.
The effect of novel flavone derivative II upon TGF-β1 treatment in A549 cells was evaluated in the same manner as in Example 1 above. FIGS. 20 and 21 show the results thereof.
The effect of novel flavone derivative III upon TGF-β1 treatment in A549 cells was evaluated in the same manner as in Example 1 above.

HLF cells [5] = test: MTT cytotoxicity evaluation in HLF cells; format: cell-based, human; settings: concentrations of 15 and 20 μM, incubated for 24 hours, compared to untreated control
Description: as §2, with “viability,” for “viability, HULEC-5a,”, “fibroblasts (HLF)” for “microvascular endothelial cells,”, “HLF” for “HULEC-5a”
as §1
as §1, with “III” for “II”, “III)” for “II)”, “27” for “17”, “29” for “19”

HULEC-5a cells [6] = test: Effect upon TGF-β1 treatment in Hulec-5a cells (western blot of protein levels); format: cell-based, human; settings: Hulec-5a cells, 5 ng/mL TGF-β1 and compound, 24 hours, FIG. 31
Description: 1.2×10^6 Hulec-5a cells, derived from pulmonary vessels, were suspended in a medium, dispensed into a 100-mm plate, and incubated for 24 hours. After 24 hours of incubation, each plate was treated with TGF-β1 (10 ng/ml) alone or in combination with novel flavone derivative I at varying concentrations or a predetermined concentration and/or nintedanib (NIDB), a therapeutic drug for idiopathic pulmonary fibrosis and interstitial lung disease. After 3, 24, and 48 hours of incubation, the cells were lysed with RIPA lysis buffer ([50 mM Tris]-Cl (pH, 7.4), 1% NP-40, 150 mM NaCl, 1 mM EDTA, and 1 mM phenylmethylsulfonyl fluoride (PMSF)) containing MG-132 (10 μM, proteasome inhibitor, protect the HIF-1α subunit from proteasome degradation). Next, only the supernatant was collected by centrifugation (at 13,000 rpm for 7 minutes) at 4° C., and the proteins were separated by SDS-polyacrylamide gel electrophoresis (SDS-PAGE). The separated proteins were transferred to a polyvinylidene difluoride membrane (PVDF membrane), reacted in 5% nonfat dry milk for 2 hours, and then reacted with primary antibodies at 4° C. overnight. After overnight, the proteins further reacted with secondary antibodies corresponding to the respective primary antibodies. Then, the protein band was examined, according to the manufacturer's protocol, using an ECL kit.
The effect of novel flavone derivative II upon TGF-β1 treatment in Hulec-5a cells was evaluated in the same manner as in Example 1 above.
The effect of novel flavone derivative III upon TGF-β1 treatment in Hulec-5a cells was evaluated in the same manner as in Example 1 above.

**Q.** For `COc1ccc(-c2c(-c3ccc(O)c(OC)c3)oc3cc(OC)c(OC)cc3c2=O)cc1` [novel flavone derivative III, 2-(4-hydroxy-3-methoxyphenyl)-6,7-dimethoxy-3-(4-methoxyphenyl)-4H-chromen-4-one], which “levels of fibronectin, COL4, COL1, α-SMA, HIF-1α, and NOX2, increased by TGF-β1 treatment” value (HLF cells [1]) is on record?
**A.** decreased

**Q.** And the cell viability (A549 cells [2])?
**A.** ≥ 80%

**Q.** What about the cell viability (HULEC-5a cells [3]; concentration of 20 μM, incubated for 24 hours) of the same compound?
**A.** ≤ 80%

**Q.** And the cell viability (HULEC-5a cells [3]; concentrations up to 15 μM, incubated for 24, 48, and 72 hours)?
**A.** ≥ 80%

**Q.** And the “levels of fibronectin, COL4, and COL3, increased by TGF-β1 treatment” value (A549 cells [4])?
**A.** decreased

**Q.** And the cell viability (HLF cells [5])?
**A.** ≤ 80%

**Q.** And the “levels of fibronectin, COL4, and COL3, increased by TGF-β1 treatment” value (HULEC-5a cells [6])?
**A.** decreased
